Assay results: patent publication US10023543B2 (CELGENE QUANTICEL RESEARCH, INC., priority 2014, dated 2018)

Key:
THP-1 (AML) cells = assay: LSD1 CD11b cellular assay (flow cytometry); type: cell-based; conditions: Homo sapiens, THP-1, 96 h; CD11b expressing cells, 4 days; read-out: THP-1 IC50
Kasumi-1 = Kasumi-1 AML cell line proliferation assay (Cell-MTS assay); type: cell-based; conditions: Homo sapiens, 168 hours
Source text: Colorimetric cellular assay to assess the ability of LSD-1 small molecule inhibitors to effect the proliferation of the established AML cancer cell line Kasumi-1.
This Cell-MTS assay is a 7-day plate based colorimetric assay which quantifies the amount of newly generated NADH in the presence and absence of test compound. These NADH levels are used as a proxy for the quantification of cancer cell proliferation.
The established cancer cell line Kasumi-1 with a verified p53 mutation were purchased from American Type Culture Collection (ATCC) and routinely passaged according to ATCC published protocols. For routine assay these cells were seeded at a density of 20,000 cells per 96-well. […] At the end of this compound incubation period, 80 μl of media is removed and 20 μL of CellTiter 96® AQueous Non-Radioactive Cell Proliferation Assay solution (Promega) is added. The cells are incubated until the OD490 is >0.6. IC50 values are calculated using the IDBS XLfit software package and include background subtracted OD490 values and normalization to DMSO controls.

full-length human LSD1 = full-length human LSD1 (Homo sapiens (Human), UniProt O60341); assay: In vitro enzyme inhibition assay LSD-1 (TR-FRET); type: biochemical; conditions: H3K4me1-biotin peptide

| IC50 (THP-1 (AML) cells) [nM] | IC50 (full-length human LSD1) [nM] | SMILES | IC50 (Kasumi-1) [nM] |
| --- | --- | --- | --- |
| < 100 | – | Cn1c(N2CCC(N)CC2)nc(-c2ccc(C#N)c(F)c2)c(-c2ccc3[nH]ncc3c2)c1=O [Example 88, 4-[2-(4-aminopiperidin-1-yl)-5-(1H-indazol-5-yl)-1-methyl-6-oxopyrimidin-4-yl]-2-fluorobenzonitrile] | < 100 |
| < 100 | – | Cc1ccc(-c2c(-c3ccc(C#N)cc3)nc(N3CCC(N)CC3)n(C)c2=O)cn1 [Example 4, 4-[2-(4-amino-piperidin-1-yl)-1-methyl-5-(6-methyl-pyridin-3-yl)-6-oxo-1,6-dihydro-pyrimidin-4-yl]-benzonitrile] | 100 to 1000 |
| < 100 | < 100 | Cn1c(N2CCC(N)CC2)nc(-c2ccc(C#N)c(F)c2)c(-c2ccc(OCCO)cc2)c1=O [Example 96, 4-[2-(4-aminopiperidin-1-yl)-5-[4-(2-hydroxyethoxy)phenyl]-1-methyl-6-oxopyrimidin-4-yl]-2-fluorobenzonitrile] | – |
| < 100 | – | Cc1ccc(-c2c(-c3ccc(C#N)c(F)c3)nc(N3CCC(N)CC3)n(C)c2=O)cn1 [Example 9] | < 100 |
